Legend:
FABI = FABI (FAB1); cited from earlier work
Nannochloris sp. [1] = experiment: 500 mL batch culture: growth, dry weight and lipid extract (gravimetric); format: cell-based; conditions: for effect on growth and lipid levels: 500 mL batch culture; for Lipid productivity / Change in Lipids / Specific Growth Rate: Nannochloris sp., 500 mL culture; for Change in Lipids: gravimetric, relative to averaged control without DMSO; for Specific Growth Rate: mid-exponential growth phase
Experimental: (§1) Batch cultures were grown in 500 mL Pyrex media bottles with stirring and air bubbling (homemade manifold with Petco air pump, 2-4% CO2). Incoming air was sterile filtered by Polyvent 4 disposable filters (Whatman, Kent, UK). […] To minimize bacterial contamination, all equipment and materials were autoclaved and media was added to flask in a Purifier Vertical Clean bench (Labconco, Kansas City, Mo.). […] The amount of DMSO is standardized for all experiments to 0.4%.
(§2) For all compound cultures, the 2 mL DMSO stock solution was added to media (without algae) first and mixed well. Control cultures were grown without DMSO. DMSO controls consisted of 0.04-1.0% DMSO. After the addition of algae and media, the container was plugged with a bug stopper vented closure cap and mixed thoroughly. Absorbance is measured immediately for Day 0 analysis. Afterward, absorbance was measured every 1-2 days with a cuvette (1 mL volume) on the Thermo Scientific Genesys 10S V is Spectrophotometer (ThermoFisher, San Jose) at 680 nm.
(§3) Batch cultures were also repeated in triplicate and compared to a control culture grown at the same time. Algae were harvested and lipids were extracted for gravimetric analysis.
(§4) The nonpolar algal extracts were harvested from 500 mL cultures when indicated on growth curves, a minimum of 3 days into stationary phase.
(§5) Cell density was monitored by measuring absorbance at 680 nm every 1-2 days.
(§6) 500-mL cultures were harvested 6 days into stationary phase based on absorbance values. Cells were concentrated by centrifugation and lyophilization to remove water. Nonpolar lipids were extracted by sonication and solvent (chloroform-methanol and PBS buffer). […] Changes in lipid levels for batch cultures were determined by crude lipid extract mass.

Nannochloris sp. [2] = experiment: Microplate assay: growth (absorbance 680 nm) and intracellular lipids (Nile Red fluorescence); format: cell-based; conditions: for Nile Red Fluorescence % Increase: Nannochloris sp., compounds tested at 20 μM, initial screening, p<0.05
Experimental: (§7) Stock cultures were aerated by stirring with bubbling air (homemade manifold with Petco air pump, 2-4% CO2) or by orbital shaking (Thermo Scientific MAXQ 2000) at a constant speed of 150 rpm at 22±3° C. with a 16:8 hour light/dark cycle. Stocks were kept at stationary phase for use. Algae were prepared as dictated by culture center.
(§8) Compounds were selected based on reported biological activity in non-microalgae organisms. To ensure that compounds retained their quality, they were stored under advised conditions after purchasing from the manufacturer. Solutions of all assay compounds were prepared as 10 mM stock solutions by dissolving in DMSO in 2-dram amber vials and then stored in darkness −20° C. 96-well PCR plates were used to create a stock plate layout that was then transferred to the algae microplates. A plate map was used to distribute each compound to a well based on molecule name, collection number, and CAS number. For 20 μM and 200 nM assay plates, 10 mM compound stock in DMSO was diluted into plate maps of 5 mM and 50 μM assay stocks, respectively.
(§9) All materials for assay experiments were autoclaved before each use to maintain axenic algae cultures. Algae species were checked for homogeneity using a TS-100 light microscope (Nikon, Japan). […] Diluted stock solutions were made immediately prior to use for consistency and optimal plate growth. Cell density was measured on a Thermo Scientific Genesys 10S Vis Spectrophotometer (ThermoFisher, San Jose), using a 1 mL cuvette at 680 nm.
(§10) Plates were originally run in triplicate, before replicates were increased to quadruplicate, along with a separate control plate to compare growth. Due to extensive evaporation in exterior wells over time, our unique algae plate layout was designed to use the 60 interior wells out of 96 wells for the experiment. The 36 outer wells were filled with Millipore water and media to prevent evaporation and edge effects in the inner algae wells, as well as serve as blanks. The 60 wells with algae contained a total volume of 251 μL (100 μL of media+DMSO compound stock +150 μL dilute algae stock). For 20 μM and 200 nM assay plates, 10 mM compound stock in DMSO is diluted into plate maps of 5 mM and 50 μM assay stocks, respectively. […] Plates were parafilmed during growth to limit the amount of evaporation that can occur. Plates were numbered, and numerically ordered to ensure they got the same shaker space.
(§11) The shakers are kept at a constant shaking of 150 rpm. Ambient temperature is 22±3° C.

Nannochloropsis salina [3] = experiment: 500 mL batch culture: growth, dry weight and lipid extract (gravimetric); format: cell-based; conditions: for effect on growth and lipid levels: 500 mL batch culture; for Lipid productivity / Lipid content / Change in Lipids / Specific Growth Rate: N. salina; for Lipid content: dried lipid extract per dry biomass; for Change in Lipids: gravimetric, relative to averaged control without DMSO; for Specific Growth Rate: mid-exponential growth phase
Experimental: as §1, §2, §3
Cultures were harvested at day 6 in stationary phase. Cultures were pelleted, lyophilized, and extracted side-by-side. The experiment was performed in triplicate.
The nonpolar algal extracts were harvested from 500 mL cultures when indicated on growth curves, a minimum of 3 days into stationary phase. […] Cells were crushed and nonpolar lipids were extracted by sonication (Fisher Scientific Model 120 Sonic Dismembrator, ThermoFisher, San Jose) for 1 minute in chloroform, followed by chloroform-methanol extractions, washed with PBS butter, and dried under vacuum.^55-60 The crude non-polar algae extracts were then analyzed by ^1H Nuclear Magnetic Resonance (^1H NMR) for verification of TAG presence and examination of the purity of the extract (determination of level of chlorophyll).
as §5, §6

Nannochloropsis salina [4] = tested on: Nannochloropsis salina
microalgae [5] = experiment: 500 mL batch culture (growth, gravimetric lipids), algae strain not stated; format: cell-based; conditions: for effect on growth and lipid levels: 500 mL batch cultures (Table 30)
[6] = tested on: Phaeodactylum tricornutum; experiment: 500 mL batch culture: growth, dry weight and lipid extract (gravimetric); format: cell-based; conditions: P. tricornutum, 500 mL culture, 4 μM in water, two replicates
Experimental: as §1, §2, §3, §4, §5, §6

[7] = tested on: Phaeodactylum tricornutum; experiment: Microplate assay: growth (absorbance 680 nm) and intracellular lipids (Nile Red fluorescence); format: cell-based
Experimental: as §7, §8, §9, §10, §11

Nannochloropsis oculata [8] = tested on: Nannochloropsis oculata
Nannochloropsis oculata [9] = experiment: 500 mL batch culture: growth, dry weight and lipid extract (gravimetric); format: cell-based; conditions: for effect on growth and lipid levels: 500 mL batch culture; for Lipid productivity / Lipid content / Change in Lipids / Specific Growth Rate: 500 mL culture; for Lipid content: dried lipid extract per dry biomass; for Change in Lipids: gravimetric, relative to averaged control without DMSO; for Specific Growth Rate: mid-exponential growth phase
Experimental: as §1, §2, §3, §4, §5, §6

Nannochloropsis oculata [10] = experiment: Lipid composition of batch culture extracts (fatty acid saturation / PUFA by 1H NMR, MALDI-TOF, GC/MS); format: cell-based; conditions: for SFAs (% of total lipids) / n3 PUFAs (% of UFAs) / All other PUFAs and MUFAs (% of UFAs) / UFAs (% of total lipids): 1H NMR; for SFAs (% of total lipids): Normal 24; for n3 PUFAs (% of UFAs): Normal 37; for All other PUFAs and MUFAs (% of UFAs): Normal 63; for UFAs (% of total lipids): Normal 76
microalgae [11] = experiment: Microplate assay (growth, Nile Red lipids), algae strain not stated; conditions: microplate screening; strain not given; listed as (−)-epigallocatechin gallate
PKC = conditions: PKC; cited from earlier work
[12] = tested on: Phaeodactylum tricornutum
Experimental: The nonpolar algal extracts were harvested from 500 mL cultures when indicated on growth curves, a minimum of 3 days into stationary phase. […] Cells were crushed and nonpolar lipids were extracted by sonication (Fisher Scientific Model 120 Sonic Dismembrator, ThermoFisher, San Jose) for 1 minute in chloroform, followed by chloroform-methanol extractions, washed with PBS butter, and dried under vacuum.^55-60 The crude non-polar algae extracts were then analyzed by ^1H Nuclear Magnetic Resonance (^1H NMR) for verification of TAG presence and examination of the purity of the extract (determination of level of chlorophyll). […]
After the initial weight was recorded, the nonpolar extract set aside for transesterification was dissolved in 3.0 mL of 0.6 M sulfuric acid in methanol and stirred vigorously at 60° C. for 45 minutes. […]
We developed a quick and robust method to screen if the screened compound effect fatty acid saturation levels using ^1H NMR spectroscopy. The amount of saturated fatty acids (SFA), monounsaturated fatty acids (MUFAs), and polyunsaturated fatty acids (PUFAs) was determined using peak area ratios.
Calculated based on ^1H NMR integral ratios for the proton signals for the methyl group of PUFA components vs. the methyl groups of monounsaturated and saturated components.

[13] = 200 nM, initial microplate screen, relative to control
[14] = 20 μM, initial microplate screen, relative to control
[15] = higher concentrations (>400 nM), microplate
[16] = microplate assay, multiple concentrations
[17] = 40 μM, 500 mL culture, day 6 in stationary phase
[18] = 500 mL culture, 4 μM in water, two replicates
[19] = 500 mL batch cultures, gravimetric (Table 30)
[20] = microplate dose-response screening
[21] = N. oculata, 4 nM, harvested day 6 of stationary phase, n=3

## O=C(O[C@@H]1Cc2c(O)cc(O)cc2O[C@@H]1c1cc(O)c(O)c(O)c1)c1cc(O)c(O)c(O)c1 [EGCG, [(2R,3R)-5,7-dihydroxy-2-(3,4,5-trihydroxy-phenyl)-3,4-dihydro-2H-chromen-3-yl] 3,4,5-trihydroxybenzoate]
FABI
  IC50: 200 nM
Nannochloris sp. [1]
  effect on growth and lipid levels: increased growth and lipid extract levels
Nannochloris sp. [1]; 40 nM
  Lipid productivity: 4.3 ± 0.8 mgL^−1day^−1
  Change in Lipids: 39%
  Specific Growth Rate: 0.17 ± 0.03 day⁻¹
Nannochloris sp. [2]; 6 nM, dose-response microplate screen
  Nile Red percent increase: 436%
Nannochloris sp. [2]; 18.6 nM, dose-response microplate screen
  Nile Red percent increase: 199%
Nannochloris sp. [2]; 55 nM, dose-response microplate screen
  Nile Red percent increase: 107%
Nannochloris sp. [2]; [13]
  Absorbance (percent increase): −1.0%
  Nile Red percent increase: 92.1%
Nannochloris sp. [2]; [14]
  Absorbance (percent increase): +1.9%
  Nile Red percent increase: 92.5%
Nannochloris sp. [2]
  Nile Red Fluorescence % Increase: 214.9%
Nannochloris sp. [2]; [15]
  lipid increase: > 100%
Nannochloris sp. [2]; [16]
  effect on lipid production / lipid levels: lipid production increased
Nannochloropsis salina [3]; [17]
  Absorbance at harvest: 1.41 ± 0.08
  Dry weight: 337.40 ± 62.55 mg
  Extract Weight: 94.77 ± 9.47 mg
  Number of Cells: 1.36E+09
  Recovered Weight: 330.03 ± 78.14 mg
Nannochloropsis salina [3]
  effect on growth and lipid levels: increased growth and lipid extract levels
Nannochloropsis salina [3]; [18]
  Lipid productivity: 7.1 ± 1.2 mgL^−1day^−1
  Lipid content: 32.4 ± 0.1 % w/w
  Change in Lipids: 46%
  Specific Growth Rate: 0.24 ± 0.01 day⁻¹
Nannochloropsis salina [3]; 500 mL culture, 40 μM
  Lipid productivity: 6.3 ± 2.2 mgL^−1day^−1
  Lipid content: 23.1 ± 10.6 % w/w
  Change in Lipids: 18%
  Specific Growth Rate: 0.22 ± 0.06 day⁻¹
Nannochloropsis salina [4]; N. salina, 493 nM, DMSO delivery, added t=day 0
  % Increase based on Nile Red Fluorescence Intensity: 87%
Nannochloropsis salina [4]; [15]
  lipid increase: > 100%
Nannochloropsis salina [4]; [16]
  effect on lipid production / lipid levels: lipid production increased
Microalgae [5]
  effect on growth and lipid levels: positive increases in growth and lipid levels
Microalgae [5]; 500 mL cultures (FIG. 19)
  increase of lipids by dry weight: > 40%
[6]
  Lipid productivity: 4.4 ± 2.4 mgL^−1day^−1
[6]; dried lipid extract per dry biomass
  Lipid content: 17.2 ± 1.3 % w/w
[6]; gravimetric, relative to averaged control without DMSO
  Change in Lipids: 6%
[6]; mid-exponential growth phase
  Specific Growth Rate: 0.19 ± 0.02 day⁻¹
[7]; [15]
  lipid increase: > 100%
[7]; increase of lipid production, P. tricornutum, best conc. 10 nM
  % Inc: 45.03%
[7]; [16]
  effect on lipid production / lipid levels: lipid production increased
Nannochloropsis oculata [8]; N. oculata, compounds tested at 200 nM, initial screening, p<0.05
  Nile Red Fluorescence % Increase: 207.5%
Nannochloropsis oculata [8]; [16]
  effect on lipid production / lipid levels: lipid production increased
Nannochloropsis oculata [9]
  effect on growth and lipid levels: increased growth and lipid extract levels
Nannochloropsis oculata [9]; N. oculata, 400 nM EGCG, n=4
  Absorbance at harvest: 1.855 ± 0.142
  Dry weight: 290.7 ± 34.5
  Extract Weight: 62.3 ± 21.6
Nannochloropsis oculata [9]; N. oculata, 4 μM
  Lipid productivity: 4.9 ± 1.7 mgL^−1day^−1
  Lipid content: 20.6 ± 6.9 % w/w
  Change in Lipids: 41%
  Specific Growth Rate: 0.17 ± 0.03 day⁻¹
Nannochloropsis oculata [9]; batch culture, combined with sodium bicarbonate addition
  effect on lipid levels: increases lipid levels
Nannochloropsis oculata [10]; 4 μM
  SFAs (% of total lipids): 57 % of total lipids
  n3 PUFAs (% of UFAs): 65 % of UFAs
  All other PUFAs and MUFAs (% of UFAs): 35 % of UFAs
  UFAs (% of total lipids): 43 % of total lipids
Nannochloropsis oculata [10]; N. oculata, 400 nM, n=1, Normal 0 ± 1
  SFAs (%): 10%
Nannochloropsis oculata [10]; N. oculata, 400 nM, n=1, Normal 4 ± 7
  MUFAs (%): 5%
Nannochloropsis oculata [10]; N. oculata, 400 nM, n=1, Normal 28 ± 4
  n3 PUFAs (%): 20%
Nannochloropsis oculata [10]; N. oculata, 400 nM, n=1, Normal 96 ± 7
  PUFAs (%): 85%
Microalgae [11]
  increase in (intracellular) lipid levels, Nile Red: more than 100%

## C=C[C@@]1(C)CC(=O)[C@]2(O)[C@@]3(C)[C@@H](O)CCC(C)(C)[C@@H]3[C@H](O)[C@H](OC(C)=O)[C@@]2(C)O1 [Forskolin, (3R,4aR,5S,6S,6aS,10S,10aR,10bS)-6,10,10b-Trihydroxy-3,4a,7,7,10a-pentamethyl-1-oxo-3-vinyldodecahydro-1H-benzo[f]chromen-5-yl acetate]
Nannochloris sp. [1]
  effect on growth and lipid levels: increases in lipid production
Nannochloris sp. [1]; [19]
  increase in lipid levels: 51%
Nannochloris sp. [1]; 10 μM
  Lipid productivity: 4.5 ± 1.7 mgL^−1day^−1
  Change in Lipids: 51%
  Specific Growth Rate: 0.15 ± 0.05 day⁻¹
Nannochloris sp. [2]; 13 nM, dose-response microplate screen
  Nile Red percent increase: 121%
Nannochloris sp. [2]; 41.2 nM, dose-response microplate screen
  Nile Red percent increase: 118%
Nannochloris sp. [2]; [13]
  Absorbance (percent increase): −5.5%
  Nile Red percent increase: 60.6%
Nannochloris sp. [2]
  Nile Red Fluorescence % Increase: 45.3%
Nannochloris sp. [2]; [20]
  lipid increase relative to the control: ≥ 100%
Nannochloropsis salina [3]
  effect on growth and lipid levels: increases in lipid production
Nannochloropsis salina [4]; [20]
  lipid increase relative to the control: ~40%
Microalgae [5]
  effect on growth and lipid levels: positive increases in growth and lipid levels
[7]; [13]
  Absorbance (percent increase): −1.2%
  Nile Red percent increase: 103.6%
[7]; [20]
  lipid increase relative to the control: ~40%
Nannochloropsis oculata [8]; [14]
  Absorbance (percent increase): −17.3%
  Nile Red percent increase: 50.4%
Nannochloropsis oculata [8]; [20]
  lipid increase relative to the control: ≥ 100%
Nannochloropsis oculata [9]
  effect on growth and lipid levels: increases in lipid production
Nannochloropsis oculata [9]; [19]
  increase in lipid levels: 84%
Nannochloropsis oculata [9]; [21]
  Absorbance at harvest: 2.10
  Dry weight: 353.57 mg
  Extract Weight: 88.67 mg
  Number of Cells: 2.46E+09
  Recovered Weight: 344.90 mg
Nannochloropsis oculata [9]; N. oculata, 4 nM
  Lipid productivity: 6.4 ± 1.2 mgL^−1day^−1
  Lipid content: 25.6 ± 1.8 % w/w
  Change in Lipids: 84%
  Specific Growth Rate: 0.17 ± 0.02 day⁻¹
Nannochloropsis oculata [10]; 40 nM
  SFAs (% of total lipids): 59 % of total lipids
  n3 PUFAs (% of UFAs): 61 % of UFAs
  All other PUFAs and MUFAs (% of UFAs): 39 % of UFAs
  UFAs (% of total lipids): 41 % of total lipids

## COC(=O)[C@@]1(O)C[C@H]2O[C@]1(C)n1c3ccccc3c3c4c(c5c6ccccc6n2c5c31)C(=O)NC4 [K-252a]
PKC
  Ki: 25 nM

## O=C([O-])O.[Na+] [sodium bicarbonate]
[12]
  effect on PUFA levels: increases PUFA levels

From patent US8778643B2, “Methods for increasing lipid levels and producing triacylglycerols in algae” (priority 2012, dated 2014)
